Measured values published in article PMC11033320, “Activation of p53 signaling and regression of breast and prostate carcinoma cells by spirooxindole-benzimidazole small molecules” (Frontiers in Pharmacology, 2024).

Columns and labels:
SF-268 = test: NCI anticancer screening, CNS Cancer SF-268; assay type: cell-based; details: Homo sapiens; SF-268, 10 μM; read-out: % Growth Inhibition (GI %)
Excerpt: (§1) The compound has been processed according to standard method NCI-60 Human Tumor Cell Lines Screen for organic compound at development therapeutic program (DTP). Requests for access to this national resource can be submitted online at: […]

SN12C = test: NCI anticancer screening, Renal Cancer SN12C; assay type: cell-based; details: Homo sapiens, read-out: % Growth Inhibition (GI %)
Excerpt: as §1

A498 = test: NCI anticancer screening, Renal Cancer A498; assay type: cell-based; details: Homo sapiens; A498, 10 μM; read-out: % Growth Inhibition (GI %)
Excerpt: as §1

HOP-92 = test: NCI anticancer screening, Non-Small Cell Lung Cancer HOP-92; assay type: cell-based; details: Homo sapiens; HOP-92, 10 μM; read-out: % Growth Inhibition (GI %)
Excerpt: as §1

SW-620 = test: NCI anticancer screening, Colon Cancer SW-620; assay type: cell-based; details: Homo sapiens; SW-620, 10 μM; read-out: % Growth Inhibition (GI %)
Excerpt: as §1

OVCAR-8 = test: NCI anticancer screening, Ovarian Cancer OVCAR-8; assay type: cell-based; details: Homo sapiens; OVCAR-8, 10 μM; read-out: % Growth Inhibition (GI %)
Excerpt: as §1

MDA-MB-435 = test: NCI anticancer screening, Melanoma MDA-MB-435; assay type: cell-based; details: Homo sapiens; MDA-MB-435, 10 μM; read-out: % Growth Inhibition (GI %)
Excerpt: as §1

COLO 205 = test: NCI anticancer screening, Colon Cancer COLO 205; assay type: cell-based; details: Homo sapiens; COLO 205, 10 μM; read-out: % Growth Inhibition (GI %)
Excerpt: as §1

SK-OV-3 = test: NCI anticancer screening, Ovarian Cancer SK-OV-3; assay type: cell-based; details: Homo sapiens; SK-OV-3, 10 μM; read-out: % Growth Inhibition (GI %)
Excerpt: as §1

RXF 393 = test: NCI anticancer screening, Renal Cancer RXF 393; assay type: cell-based; details: Homo sapiens; RXF 393, 10 μM; read-out: % Growth Inhibition (GI %)
Excerpt: as §1

MDA-MB 231 cells = details: for inhibition: 5 µM
DU-145 = test: NCI anticancer screening, DU-145; assay type: cell-based; details: Homo sapiens; DU-145, 10 μM; read-out: % Growth Inhibition (GI %)
Excerpt: as §1

NCI/ADR-RES = test: NCI anticancer screening, Ovarian Cancer NCI/ADR-RES; assay type: cell-based; details: Homo sapiens, read-out: % Growth Inhibition (GI %)
Excerpt: as §1

HL-60(TB) = test: NCI anticancer screening, Leukemia HL-60(TB); assay type: cell-based; details: Homo sapiens, read-out: % Growth Inhibition (GI %)
Excerpt: as §1

SNB-19 = test: NCI anticancer screening, CNS Cancer SNB-19; assay type: cell-based; details: Homo sapiens; SNB-19, 10 μM; read-out: % Growth Inhibition (GI %)
Excerpt: as §1

HCT-116 = test: NCI anticancer screening, Colon Cancer HCT-116; assay type: cell-based; details: Homo sapiens; HCT-116, 10 μM; read-out: % Growth Inhibition (GI %)
Excerpt: as §1

U251 = test: NCI anticancer screening, CNS Cancer U251; assay type: cell-based; details: Homo sapiens, U-251; U251, 10 μM; read-out: % Growth Inhibition (GI %)
Excerpt: as §1

SF-295 = test: NCI anticancer screening, CNS Cancer SF-295; assay type: cell-based; details: Homo sapiens; SF-295, 10 μM; read-out: % Growth Inhibition (GI %)
Excerpt: as §1

SK-MEL-5 = test: NCI anticancer screening, Melanoma SK-MEL-5; assay type: cell-based; details: Homo sapiens; SK-MEL-5, 10 μM; read-out: % Growth Inhibition (GI %)
Excerpt: as §1

KM12 = test: NCI anticancer screening, Colon Cancer KM12; assay type: cell-based; details: Homo sapiens; KM12, 10 μM; read-out: % Growth Inhibition (GI %)
Excerpt: as §1

TK-10 = test: NCI anticancer screening, Renal Cancer TK-10; assay type: cell-based; details: Homo sapiens; TK-10, 10 μM; read-out: % Growth Inhibition (GI %)
Excerpt: as §1

HOP-62 = test: NCI anticancer screening, Non-Small Cell Lung Cancer HOP-62; assay type: cell-based; details: Homo sapiens; HOP-62, 10 μM; read-out: % Growth Inhibition (GI %)
Excerpt: as §1

786-0 = test: NCI anticancer screening, Renal Cancer 786-0; assay type: cell-based; details: Homo sapiens; 786-0, 10 μM; read-out: % Growth Inhibition (GI %)
Excerpt: as §1

PC-3 cells = test: MTT assay anticancer activity, PC-3; assay type: cell-based; details: Homo sapiens, PC-3, 5 µM, mean ± SEM, read-out: growth inhibition percentage of PC-3
Excerpt: MTT method was done as described above.

EKVX = test: NCI anticancer screening, Non-Small Cell Lung Cancer EKVX; assay type: cell-based; details: Homo sapiens, read-out: % Growth Inhibition (GI %)
Excerpt: as §1

CCRF-CEM = test: NCI anticancer screening, Leukemia CCRF-CEM; assay type: cell-based; details: Homo sapiens, read-out: % Growth Inhibition (GI %)
Excerpt: as §1

SNB-75 = test: NCI anticancer screening, CNS Cancer SNB-75; assay type: cell-based; details: Homo sapiens; SNB-75, 10 μM; read-out: % Growth Inhibition (GI %)
Excerpt: as §1

NCI-H226 = test: NCI anticancer screening, Non-Small Cell Lung Cancer NCI-H226; assay type: cell-based; details: Homo sapiens; NCI-H226, 10 μM; read-out: % Growth Inhibition (GI %)
Excerpt: as §1

[1] = tested on: leukemia cells (CCRF-CEM; HL-60 (TB); K-562; MOLT-4; RPMI-8226, SR); test: NCI anticancer screening, leukemia subpanel; assay type: cell-based, human; details: smaller GI% than the other compounds
Excerpt: as §1

[2] = target: T1, Mdm2 (residues 1–118 T47W) (Homo sapiens, UniProt Q00987, T47W); test: MDM2 binding by microscale thermophoresis (MST)
T1 construct: Mdm2 (residues 1–118 T47W; 500 nM)
Protocol: MST is a complementary biophysical assay to assess the binding of a small molecule to its receptor. […] Experiments were performed in 50 mM phosphate buffer at pH 7.4 containing 150 mM NaCl, 5 mM DTT, and 5% DMSO. […] Kd values and uncertainties were calculated using the MO Affinity Analysis software.

T1 sequence (Q00987 1-118 T47W): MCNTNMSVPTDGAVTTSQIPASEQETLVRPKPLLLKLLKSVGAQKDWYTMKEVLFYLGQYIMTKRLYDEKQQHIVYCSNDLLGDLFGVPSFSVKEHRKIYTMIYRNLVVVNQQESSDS

Row | Compound | inhibition at 10 µM (SF-268) [%] | inhibition at 10 µM (SN12C) [%] | inhibition at 10 µM (HOP-92) [%] | inhibition at 10 µM (SW-620) [%] | inhibition at 10 µM (OVCAR-8) [%] | inhibition at 10 µM (MDA-MB-435) [%] | inhibition at 10 µM (RXF 393) [%] | inhibition (MDA-MB 231 cells) [%] | inhibition at 10 µM (DU-145) [%] | inhibition at 10 µM (NCI/ADR-RES) [%] | inhibition at 10 µM (HL-60(TB)) [%] | inhibition at 10 µM (SNB-19) [%] | inhibition at 10 µM (HCT-116) [%] | inhibition at 10 µM (U251) [%] | inhibition at 10 µM (SF-295) [%] | inhibition at 10 µM (SK-MEL-5) [%] | inhibition at 10 µM (KM12) [%] | inhibition at 10 µM (TK-10) [%] | inhibition at 10 µM (HOP-62) [%] | inhibition at 10 µM (786-0) [%] | other results
1 | COc1cc([C@@H]2C3CSCN3[C@]3(C(=O)Nc4ccccc43)[C@H]2C(=O)c2nc3ccccc3[nH]2)cc(OC)c1OC (stereo partly drawn) [Compound 6i, (3S,6′R)-6'-(1H-Benzo [d]imidazole-2-carbonyl)-7'-(3,4,5-trimethoxyphenyl)-3′,6′,7′,7a′-tetrahydro-1′H-spiro [indoline-3.5′-pyrrolo [1,2-c]thiazol]-2-one] | 99.2 | 99 | 106 | 99.5 | 99.3 | 101 | 109 | 46 ± 1.41 | 111 | 104 | 103 | 100 | 102 | 103 | 95.2 | 103 | 101 | 104 | 104 | 99.4 | inhibition at 10 µM (A498): 81.7%; inhibition at 10 µM (COLO 205): 114%; inhibition at 10 µM (SK-OV-3): 102%; inhibition at 5 µM (PC-3 cells): 49.8 ± 3.12%; inhibition at 10 µM (EKVX): 100%; inhibition at 10 µM (CCRF-CEM): 104%; inhibition at 10 µM (SNB-75): 94.1%
2 | O=C(c1nc2ccccc2[nH]1)[C@H]1[C@H](c2ccc(Cl)cc2Cl)C2CSCN2[C@]12C(=O)Nc1ccccc12 (stereo partly drawn) [Compound 6g, (3S,6′R)-6'-(1H-Benzo [d]imidazole-2-carbonyl)-7'-(2,4-dichlorophenyl)-3′,6′,7′,7a′-tetrahydro-1′H-spiro [indoline-3.5′-pyrrolo [1,2-c]thiazol]-2-one] | 47 | 63 | 77.6 | 72.9 | 77 | 56 | 40.7 | 56.7 ± 0.87 | 86.9 | 68.4 | 80.7 | 70.1 | 56.4 | 79 | 63.7 | 81.9 | 52.3 | 107 | 80.3 | 85.9 | IC50 (MDA-MB 231 cells): 6.22 µM; inhibition at 10 µM (NCI-H226): 61.8%; inhibition at 5 µM (PC-3 cells): 54.5 ± 1.56%; inhibition at 10 µM (EKVX): 63.5%; inhibition at 10 µM (CCRF-CEM): 60.1%; GI% for MOLT-4, RPMI-8226, and SR cancer cells [1]: 75%; inhibition at 10 µM (SNB-75): 59.7%
3 | O=C(c1nc2ccccc2[nH]1)[C@H]1[C@H](c2ccc(Br)cc2)C2CSCN2[C@]12C(=O)Nc1ccccc12 (stereo partly drawn) [Compound 6l, (3S,6′R)-6'-(1H-Benzo [d]imidazole-2-carbonyl)-7'-(4-bromophenyl)-3′,6′,7′,7a′-tetrahydro-1′H-spiro [indoline-3.5′-pyrrolo [1,2-c]thiazol]-2-one] | 71.5 | 82.8 | 96.9 | 80.7 | 89.8 | 67.9 | 62.1 | 53.59 ± 0.109 | 97.1 | 83.2 | 89.9 | 67 | 59.2 | 75.8 | 63.9 | 84.8 | 59.8 | 145 | 88.7 | 91.5 | IC50 (MDA-MB 231 cells): 4.51 ± 0.203 µM; Kd [2]: 49.9 µM; inhibition at 10 µM (NCI-H226): 74.8%; inhibition at 5 µM (PC-3 cells): 55.1 ± 1.98%; inhibition at 10 µM (EKVX): 68.8%; inhibition at 10 µM (CCRF-CEM): 88.2%; GI% for MOLT-4, RPMI-8226, and SR cancer cells [1]: 75%; inhibition at 10 µM (SNB-75): 68%
4 | O=C(c1nc2ccccc2[nH]1)[C@H]1[C@H](c2ccc(F)cc2)C2CSCN2[C@]12C(=O)Nc1ccccc12 (stereo partly drawn) [Compound 6f, (3S,6′R)-6'-(1H-Benzo [d]imidazole-2-carbonyl)-7'-(4-fluorophenyl)-3′,6′,7′,7a′-tetrahydro-1′H-spiro [indoline-3.5′-pyrrolo [1,2-c]thiazol]-2-one] | 96.3 | 91.1 | 112 | 91.1 | 94.7 | 94.6 | 99.6 | 44.9 ± 3.59 | 111 | 99.4 | 93.1 | 95.9 | 92.9 | 93.5 | 77.9 | 94.7 | 88.7 | 101 | 104 | 99 | inhibition at 10 µM (A498): 57.2%; inhibition at 10 µM (COLO 205): 109%; inhibition at 10 µM (SK-OV-3): 102%; IC50 (MDA-MB 231 cells): 4.41 ± 0.448 µM; inhibition at 5 µM (PC-3 cells): 46 ± 0.833%; inhibition at 10 µM (EKVX): 93.8%; inhibition at 10 µM (CCRF-CEM): 98.2%; inhibition at 10 µM (SNB-75): 89.8%
